Legend:
nuclear CAR = assay: Protein expression of nuclear CAR (nuclear extraction, western blot); type: cell-based, human; settings: Hep3B, treatment for 2 h
Description: (§1) Figure 3 Image of immunofluorescence staining for CAR translocation in Hep3B cells after 6,7-diprenoxycoumarin (50) treatment (A) and scoparone treatment (C). Hep3B cells were treated with 50 (10 μM) for 2 h. The negative control group was pre-treated with 10 nM okadaic acid (OA). The blue and green fluorescence stands for signals of nuclei and CAR protein, respectively. The protein expression of nuclear CAR after 6,7-diprenoxycoumarin (50) treatment for 2 h (B).
Cells were harvest by centrifugation after trypsin-EDTA treatment. The ice-cold CER I (10 μL/1 × 10^6 cells) was added to the cell pellet following the manufacturer’s instruction. The tube was vigorously vortexed on the highest setting for 15 s to fully suspend the cell pellet, incubated on ice for 10 min, then ice-cold CER II was added to the tube and vortexed for 5 s on the highest setting. After incubating in ice for 1 min, tube was vortexed for 5 s on the highest setting then subjected to centrifuge for 5 min at 16,000× g. The supernatant (cytoplasmic fraction) was […] to a clean pre-chilled tube and the nuclear fraction (pellet) was re-suspended in ice-cold NER. […]
(§2) Protein concentration of each sample was determined using a BCA Protein Assay Kit (Pirece®, Thermo Scientific). […] The emitted fluorescence from the membrane was caught on a LAS-4000 biomolecule imager (FUJI.).

MRP2 = assay: mRNA expression of MRP2 in Hep3B (RT-PCR); type: cell-based, human; settings: 10 μM, 2, 4, 6, 8 and 10 h
Description: Figure 6 The time course study of mRNA expression of MRP2 and UGT1A1 after 10 μM 6,7-diprenoxycoumarin treatment. Hep3B cells were treated with 10 μM 50 for 2, 4, 6, 8 and 10 h. The total mRNA was obtained and the expression of downstream genes were analyzed with PCR. The ratio of MRP2 to GAPDH was calculated using Image J and normalization.
Total RNA was isolated from control and treated cells using a TRIzol reagent (Invitrogen) according to the manufacturer’s instruction. The RNA concentration was measured by a spectrophotometer and equal amounts of total RNA (2 μg) were reverse—transcribed using a RevertAid First Strand cDNA Synthesis Kit (K1622, Fermentas, Hanover, MD, USA). Amplification of cDNA was performed in the PCR reaction buffer (0.2 mM dNTP, 1.5 mM MgCl2, and 0.5 μM of each primer) containing 2.5 units of Taq DNA polymerase. The PCR products were resolved by agarose electrophoresis, visualized by ethidium bromide straining and quantified by Image J®. The PCR cycling procedures and sequences of primers are listed below. PCR conditions: (1) UGT1A1: 94 °C, 30 s; 62 °C, 45 s; 72 °C, 30 s; 27 cycles; (2) MRP2: 94 °C, 30 s; 62 °C, 45 s; 72 °C, 30 s; 27 cycles; (3) CAR: 94 °C, 30 s; 59 °C, 45 s; 72 °C, 30 s; 35 cycles; (4) GADPH: 94 °C, 30 s; 62 °C, 45 s; 72 °C, 30 s; 27 cycles; (4) gtPBREM: 94 °C, 30 s; 63 °C, 30 s; 68 °C, 60 s; 30 cycles.

EGFR = biological target: T1, EGFR (Homo sapiens, UniProt P00533); assay: EGF-induced phosphorylation of EGFR in Hep3B (western blot); type: cell-based; settings: 10 μM, 15 min
T1 construct: 6,7-Diprenoxycoumarin (50) antagonized EGF-induced phosphorylation EGFR in Hep3B; endogenous in cells; host or cells: Hep3B
Description: Figure 4 6,7-Diprenoxycoumarin (50) antagonized EGF-induced phosphorylation EGFR in Hep3B. The Hep3B cells (1 × 10^6) were treated without (Ctrl) or with EGF in the absent 50 or present (EGF + 50) of 10 μM 50 for 15 min and phosphorylation status of EGFR was measured.
1 × 10^6 cells were seeded in a 10 cm plate, incubated at 37 °C for overnight and treated with various concentrations of compounds for the indicated times. After incubation, the culture medium was removed and washed twice with 2 mL ice-cold 1× PBS. Three hundred μL of protein lysis buffer (150 mM NaCl, 50 mM Tris-HCl (pH 7.4), 1% SDS, 1% Triton X-100, 1 mM PMSF) was added into each plate, scraped with a rubber policeman, collected into a premarked microtube and the incubated in ice for 1 h, sonicated by Ultrasonic Cell Disruptor for three time at 5 s each. The cell lysated was cleared by centrifugation at 12,000× g for 15 min at 4 °C. Supernatants were transferred into a fresh marked microtube and stored at −20 °C for future use.
as §2, with “Scientific). Different percentages of SDS-PAGE gels were prepared according to the molecular size of proteins of interest.” for “Scientific).”

CAR protein = assay: Immunofluorescence staining for CAR translocation in Hep3B cells; type: cell-based, human; settings: 10 μM, 2 h
Description: as §1
Hep3B cells (4 × 10^5) were grown on coverslips for overnight then washed twice with 1× PBS and fixed with 4% paraformaldehyde in 1× PBS for 30 min at room temperature. Cells were then permeabilized with 1× PBS containing 0.1% (v/v) Triton X-100 for 10–15 min and blocked in 1× PBS containing 5% BSA for 1 h at room temperature. CAR antibody (1:200 dilutions) was added and reacted at room temperature for 2 h in 1× PBS containing 5% BSA. FITC-conjugated goat anti-rabbit IgG antibody was added for another 1 h at room temperature. Coverslips were mounted and images were acquired under a fluorescence microscope.

FXR = test system: FXR; set-up: method as in PMID 21649640; settings: scoparone alone, up to 100 μM; cited from earlier work
bile salt export pump = test system: bile salt export pump; set-up: method as in PMID 21649640; settings: scoparone 10 μM with chenodeoxycholic acid 10 μM; cited from earlier work

T1 sequence (P00533 25-1210): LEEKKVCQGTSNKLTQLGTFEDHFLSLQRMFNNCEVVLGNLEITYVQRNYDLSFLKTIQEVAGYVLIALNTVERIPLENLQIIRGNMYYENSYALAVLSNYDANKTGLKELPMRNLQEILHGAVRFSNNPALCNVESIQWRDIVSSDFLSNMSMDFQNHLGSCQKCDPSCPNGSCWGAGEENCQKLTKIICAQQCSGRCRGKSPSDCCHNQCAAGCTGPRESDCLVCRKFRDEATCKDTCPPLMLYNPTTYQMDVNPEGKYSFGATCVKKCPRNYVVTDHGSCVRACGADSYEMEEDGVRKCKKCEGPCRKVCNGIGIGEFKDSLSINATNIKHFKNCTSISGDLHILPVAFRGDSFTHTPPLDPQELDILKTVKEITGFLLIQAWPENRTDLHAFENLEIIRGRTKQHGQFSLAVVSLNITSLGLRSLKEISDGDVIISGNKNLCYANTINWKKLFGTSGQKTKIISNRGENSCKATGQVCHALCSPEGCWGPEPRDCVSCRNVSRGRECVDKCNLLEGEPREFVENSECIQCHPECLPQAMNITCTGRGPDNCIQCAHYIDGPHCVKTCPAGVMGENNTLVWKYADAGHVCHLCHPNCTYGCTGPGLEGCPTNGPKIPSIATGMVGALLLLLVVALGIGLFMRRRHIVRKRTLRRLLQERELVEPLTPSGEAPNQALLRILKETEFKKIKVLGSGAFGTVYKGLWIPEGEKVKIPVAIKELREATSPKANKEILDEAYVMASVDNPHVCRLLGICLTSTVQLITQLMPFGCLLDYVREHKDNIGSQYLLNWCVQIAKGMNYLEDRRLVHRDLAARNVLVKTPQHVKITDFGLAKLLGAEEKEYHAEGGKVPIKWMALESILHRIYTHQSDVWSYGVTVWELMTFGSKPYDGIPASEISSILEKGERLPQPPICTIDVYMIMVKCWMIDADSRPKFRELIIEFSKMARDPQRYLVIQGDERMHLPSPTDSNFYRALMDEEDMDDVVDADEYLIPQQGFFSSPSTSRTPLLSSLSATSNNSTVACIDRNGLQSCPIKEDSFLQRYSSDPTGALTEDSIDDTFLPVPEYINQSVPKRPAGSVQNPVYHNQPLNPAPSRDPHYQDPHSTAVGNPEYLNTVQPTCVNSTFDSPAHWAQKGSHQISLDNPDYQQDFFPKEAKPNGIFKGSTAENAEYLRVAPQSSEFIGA

## CC(C)=CCOc1cc2ccc(=O)oc2cc1OCC=C(C)C [Compound 50, 6,7-diprenoxycoumarin]
Nuclear CAR
  protein expression of nuclear CAR: increased
MRP2
  mRNA expression level of MRP2: enhanced
EGFR
  EGF-induced phosphorylation of EGFR: reduce
CAR protein
  translocation of CAR protein: confirmed

## COc1cc2ccc(=O)oc2cc1OC [Compound 39, scoparone]
FXR
  FXR activation: no effect
Bile salt export pump
  effect on chenodeoxycholic acid-increased expression of bile salt export pump: potentiated
